The values below come from paper PMC3909880 (Nature communications, 2013).

Assay [1] deals with M. tuberculosis H37Rv. Nature of the assay: microbe, parasite or virus in culture. The format is cell-based, Mycobacterium tuberculosis. Particulars: for MIC: Mycobacterium tuberculosis, H37RV, read-out: MIC for H37Rv; for MIC for H37Rv: M. tuberculosis H37Rv parental strain.
The subject of assay [2] is M. tuberculosis H37Rv. The format is in vivo, Mycobacterium tuberculosis. Particulars: 10 mg/kg oral gavage daily (5 days per week), BALB/c mice.
Assay [3] relates to M. tuberculosis strains H37Rv, V4207, V2475, KZN494, TF274, R506. Particulars: MDR strains V2475 and KZN494; cited from earlier work.

In brackets after ≈: the same amount, converted by molar mass.

Regarding `NCC[C@H](O)C(=O)N[C@@H]1C[C@H](N)[C@@H](O[C@H]2O[C@H](CN)[C@@H](O)[C@H](O)[C@H]2O)[C@H](O)[C@H]1O[C@H]1O[C@H](CO)[C@@H](O)[C@H](N)[C@H]1O` [Amikacin], the MIC in assay [1] came out at 1 µg/mL (≈ 1.71 µM).
Regarding `CC[C@@H](CO)NCCN[C@@H](CC)CO` [Ethambutol], the MIC in assay [1] was found to be 1 µg/mL (≈ 4.89 µM).
On to `NNC(=O)c1ccncc1` [Isoniazid], for which the MIC in assay [1] was 0.04 µg/mL (≈ 0.292 µM). In assay [2], the “Mean lung CFU counts (standard deviation), Day 7” value is recorded as 5.508 (0.124) log10 CFU/lung; the “Mean lung CFU counts (standard deviation), Day 14” value is given as 5.266 (0.089) log10 CFU/lung; the “Mean lung CFU counts (standard deviation), Day 28” value was 4.561 (0.088) log10 CFU/lung. Also, the “Susceptibility of the MDR strains” value in assay [3] was “resistant”.
As for `NC[C@H]1O[C@H](O[C@H]2[C@H](O)[C@@H](O[C@H]3O[C@H](CO)[C@@H](O)[C@H](N)[C@H]3O)[C@H](N)C[C@@H]2N)[C@H](O)[C@@H](O)[C@@H]1O` [Kanamycin], the “MIC for H37Rv” value in assay [1] is 2 µg/mL.
Turning to `C[C@H]1COc2c(N3CCN(C)CC3)c(F)cc3c(=O)c(C(=O)O)cn1c23` [Levofloxacin], the MIC in assay [1] was determined as 0.25 µg/mL (≈ 0.692 µM).
Consider `COc1c(N2C[C@@H]3CCCN[C@@H]3C2)c(F)cc2c(=O)c(C(=O)O)cn(C3CC3)c12` [Moxifloxacin], for which the MIC in assay [1] was in the range of 0.0625 to 0.125 µg/mL (≈ 0.156 to 0.311 µM).
Take `CO[C@H]1/C=C/O[C@@]2(C)Oc3c(C)c(O)c4c(O)c(c(/C=N/N5CCN(C)CC5)c(O)c4c3C2=O)NC(=O)/C(C)=C\C=C\[C@H](C)[C@H](O)[C@@H](C)[C@@H](O)[C@@H](C)[C@H](OC(C)=O)[C@@H]1C` [Rifampin]: in assay [1], the MIC was 0.125 µg/mL (≈ 0.152 µM). For the same compound, the “Susceptibility of the MDR strains” value in assay [3] is recorded as “resistant”.
For the compound `CC(C)=CCC/C(C)=C/CNCCNC1C2CC3CC(C2)CC1C3` (centres unmarked) [SQ109], the MIC in assay [1] worked out at 0.25 µg/mL (≈ 0.756 µM).
Consider Capreomycin, for which, in assay [1], the “MIC for H37Rv” value came to 1 µg/mL.
